The test system of this series is CCRIS mutagenicity, Ames/micronucleus/aberration tests. As to the kind of experiment: CCRIS mutagenicity studies.
Where [1] appears, read: Test System: AMES SALMONELLA TYPHIMURIUM, Strain/Indicator: TA98, Metabolic Activation: NONE, Method: PREINCUBATION
Setting [2] is: Test System: AMES SALMONELLA TYPHIMURIUM, Strain/Indicator: TA100, Metabolic Activation: NONE, Method: PREINCUBATION
[3] abbreviates: Test System: AMES SALMONELLA TYPHIMURIUM, Strain/Indicator: TA1535, Metabolic Activation: NONE, Method: PREINCUBATION
Where [4] appears, read: Test System: AMES SALMONELLA TYPHIMURIUM, Strain/Indicator: TA1537, Metabolic Activation: NONE, Method: PREINCUBATION

Structures are written as SMILES. Calls of active or inactive are those of the source. The rule behind the calls is not given here.

As to `CCCC(=O)O[C@H]1[C@H](C)O[C@@H](O[C@H]2[C@H](N(C)C)[C@@H](O)[C@H](O[C@H]3[C@@H](CC=O)C[C@@H](C)[C@@H](O)/C=C/C=C/C[C@@H](C)OC(=O)C[C@@H](O)[C@@H]3OC)O[C@@H]2C)C[C@@]1(C)OC(=O)CC`, the mutagenic call under setting [1] is “inactive; negative”; the mutagenic call (Test System: AMES SALMONELLA TYPHIMURIUM, Strain/Indicator: TA98, Metabolic Activation: RAT, LIVER, S-9, AROCLOR 1254, Method: PREINCUBATION) is “inactive; negative”; the mutagenic call under setting [2] is “inactive; negative”; the mutagenic call (Test System: AMES SALMONELLA TYPHIMURIUM, Strain/Indicator: TA100, Metabolic Activation: RAT, LIVER, S-9, AROCLOR 1254, Method: PREINCUBATION) was “inactive; negative”; the mutagenic call under setting [3] is “inactive; negative”; the mutagenic call (Test System: AMES SALMONELLA TYPHIMURIUM, Strain/Indicator: TA1535, Metabolic Activation: RAT, LIVER, S-9, AROCLOR 1254, Method: PREINCUBATION) was “inactive; negative”. Besides, the mutagenic call is “inactive; negative” under setting [4]; “inactive; negative” (Test System: AMES SALMONELLA TYPHIMURIUM, Strain/Indicator: TA1537, Metabolic Activation: RAT, LIVER, S-9, AROCLOR 1254, Method: PREINCUBATION); “inactive; negative” (Test System: AMES SALMONELLA TYPHIMURIUM, Strain/Indicator: TA1538, Metabolic Activation: NONE, Method: PREINCUBATION); “inactive; negative” (Test System: AMES SALMONELLA TYPHIMURIUM, Strain/Indicator: TA1538, Metabolic Activation: RAT, LIVER, S-9, AROCLOR 1254, Method: PREINCUBATION); “inactive; negative” (Test System: E. COLI, Strain/Indicator: WP2 UVRA, Metabolic Activation: NONE, Method: PREINCUBATION); “inactive; negative” (Test System: E. COLI, Strain/Indicator: WP2 UVRA, Metabolic Activation: RAT, LIVER, S-9, AROCLOR 1254, Method: PREINCUBATION).
As for `O=C=NCCCCCCN=C=O`, the mutagenic call reads like this: (Test System: AMES SALMONELLA TYPHIMURIUM, Strain/Indicator: TA98, Metabolic Activation: NONE, Method: DESICCATOR) “inactive; negative”; under setting [1], “inactive; negative”; (Test System: AMES SALMONELLA TYPHIMURIUM, Strain/Indicator: TA98, Metabolic Activation: RAT LIVER S-9, AROCLOR 1254 (10%), Method: DESICCATOR) “inactive; negative”; (Test System: AMES SALMONELLA TYPHIMURIUM, Strain/Indicator: TA98, Metabolic Activation: RAT, LIVER, S-9, SODIUM PHENOBARBITAL AND 5,6-BENZOFLAVONE, Method: PREINCUBATION) “inactive; negative”; (Test System: AMES SALMONELLA TYPHIMURIUM, Strain/Indicator: TA100, Metabolic Activation: NONE, Method: DESICCATOR) “inactive; negative”; under setting [2], “inactive; negative”. Besides, the mutagenic call was “inactive; negative” (Test System: AMES SALMONELLA TYPHIMURIUM, Strain/Indicator: TA100, Metabolic Activation: RAT LIVER S-9, AROCLOR 1254 (10%), Method: DESICCATOR); “inactive; negative” (Test System: AMES SALMONELLA TYPHIMURIUM, Strain/Indicator: TA100, Metabolic Activation: RAT, LIVER, S-9, SODIUM PHENOBARBITAL AND 5,6-BENZOFLAVONE, Method: PREINCUBATION); “inactive; negative” (Test System: AMES SALMONELLA TYPHIMURIUM, Strain/Indicator: TA102, Metabolic Activation: NONE, Method: PREINCUBATION); “inactive; negative” (Test System: AMES SALMONELLA TYPHIMURIUM, Strain/Indicator: TA102, Metabolic Activation: RAT, LIVER, S-9, SODIUM PHENOBARBITAL AND 5,6-BENZOFLAVONE, Method: PREINCUBATION); “inactive; negative” (Test System: AMES SALMONELLA TYPHIMURIUM, Strain/Indicator: TA104, Metabolic Activation: NONE, Method: PREINCUBATION); “inactive; negative” (Test System: AMES SALMONELLA TYPHIMURIUM, Strain/Indicator: TA104, Metabolic Activation: RAT, LIVER, S-9, SODIUM PHENOBARBITAL AND 5,6-BENZOFLAVONE, Method: PREINCUBATION). In addition, the mutagenic call is “inactive; negative” (Test System: AMES SALMONELLA TYPHIMURIUM, Strain/Indicator: TA1535, Metabolic Activation: NONE, Method: DESICCATOR); “inactive; negative” under setting [3]; “inactive; negative” (Test System: AMES SALMONELLA TYPHIMURIUM, Strain/Indicator: TA1535, Metabolic Activation: RAT LIVER S-9, AROCLOR 1254 (10%), Method: DESICCATOR); “inactive; negative” (Test System: AMES SALMONELLA TYPHIMURIUM, Strain/Indicator: TA1535, Metabolic Activation: RAT, LIVER, S-9, SODIUM PHENOBARBITAL AND 5,6-BENZOFLAVONE, Method: PREINCUBATION); “inactive; negative” (Test System: AMES SALMONELLA TYPHIMURIUM, Strain/Indicator: TA1537, Metabolic Activation: NONE, Method: DESICCATOR); “inactive; negative” under setting [4]. The mutagenic call (Test System: AMES SALMONELLA TYPHIMURIUM, Strain/Indicator: TA1537, Metabolic Activation: RAT LIVER S-9, AROCLOR 1254 (10%), Method: DESICCATOR) is “inactive; negative”; the mutagenic call (Test System: AMES SALMONELLA TYPHIMURIUM, Strain/Indicator: TA1537, Metabolic Activation: RAT, LIVER, S-9, SODIUM PHENOBARBITAL AND 5,6-BENZOFLAVONE, Method: PREINCUBATION) is “inactive; negative”; the mutagenic call (Test System: CHINESE HAMSTER OVARY CELLS, Strain/Indicator: CHO/HGPRT/6-THIOGUANINE, Metabolic Activation: NONE, Method: DESICCATOR) is “inactive; negative”; the mutagenic call (Test System: CHINESE HAMSTER OVARY CELLS, Strain/Indicator: CHO/HGPRT/6-THIOGUANINE, Metabolic Activation: RAT LIVER S-9, AROCLOR 1254 (10%), Method: DESICCATOR) is “inactive; negative”; the mutagenic call (Test System: E. COLI, Strain/Indicator: WP2UVRA/PKM101, Metabolic Activation: NONE, Method: PREINCUBATION) is “inactive; negative”; the mutagenic call (Test System: E. COLI, Strain/Indicator: WP2UVRA/PKM101, Metabolic Activation: RAT, LIVER, S-9, SODIUM PHENOBARBITAL AND 5,6-BENZOFLAVONE, Method: PREINCUBATION) is “inactive; negative”. The mutagenic call by setting is: (Test System: E. COLI, Strain/Indicator: WP2UVRA, Metabolic Activation: NONE, Method: PREINCUBATION) “inactive; negative”; (Test System: E. COLI, Strain/Indicator: WP2UVRA, Metabolic Activation: RAT, LIVER, S-9, SODIUM PHENOBARBITAL AND 5,6-BENZOFLAVONE, Method: PREINCUBATION) “inactive; negative”.
`CC(C)(COCC1CO1)COCC1CO1` (configuration not stated): the mutagenic call runs as follows: (Test System: AMES SALMONELLA TYPHIMURIUM, Strain/Indicator: TA100, Metabolic Activation: HAMSTER, LIVER, S-9, AROCLOR 1254 (10%), Method: PREINCUBATION) “active; positive”; under setting [2], “active; positive”; (Test System: AMES SALMONELLA TYPHIMURIUM, Strain/Indicator: TA100, Metabolic Activation: RAT, LIVER, S-9, AROCLOR 1254 (10%), Method: PREINCUBATION) “active; positive”; (Test System: AMES SALMONELLA TYPHIMURIUM, Strain/Indicator: TA1535, Metabolic Activation: HAMSTER, LIVER, S-9, AROCLOR 1254 (10%), Method: PREINCUBATION) “active; positive”; under setting [3], “active; positive”; (Test System: AMES SALMONELLA TYPHIMURIUM, Strain/Indicator: TA1535, Metabolic Activation: RAT, LIVER, S-9, AROCLOR 1254 (10%), Method: PREINCUBATION) “active; positive”.
Turning to `COc1ccc(CN(CC[N+](C)(C)[O-])c2ccccn2)cc1`, the mutagenic call was “inactive; negative” (Test System: AMES SALMONELLA TYPHIMURIUM, Strain/Indicator: TA97, Metabolic Activation: NONE, Method: STANDARD PLATE); “inactive; negative” (Test System: AMES SALMONELLA TYPHIMURIUM, Strain/Indicator: TA97, Metabolic Activation: RAT, LIVER, S-9, AROCLOR 1254, Method: STANDARD PLATE); “inactive; negative” (Test System: AMES SALMONELLA TYPHIMURIUM, Strain/Indicator: TA98, Metabolic Activation: NONE, Method: STANDARD PLATE); “inactive; negative” (Test System: AMES SALMONELLA TYPHIMURIUM, Strain/Indicator: TA98, Metabolic Activation: RAT, LIVER, S-9, AROCLOR 1254, Method: STANDARD PLATE); “inactive; negative” (Test System: AMES SALMONELLA TYPHIMURIUM, Strain/Indicator: TA100, Metabolic Activation: NONE, Method: STANDARD PLATE); “inactive; negative” (Test System: AMES SALMONELLA TYPHIMURIUM, Strain/Indicator: TA100, Metabolic Activation: RAT, LIVER, S-9, AROCLOR 1254, Method: STANDARD PLATE). For the same molecule, the mutagenic call is “inactive; negative” (Test System: AMES SALMONELLA TYPHIMURIUM, Strain/Indicator: TA102, Metabolic Activation: NONE, Method: STANDARD PLATE) and “inactive; negative” (Test System: AMES SALMONELLA TYPHIMURIUM, Strain/Indicator: TA102, Metabolic Activation: RAT, LIVER, S-9, AROCLOR 1254, Method: STANDARD PLATE).

For the origin of these results see PubChem BioAssay AID1259407 (Chemical Carcinogenesis Research Information System (CCRIS), 2018).
